Measurements taken from patent US6673780B2, “Sulfoxide and bis-sulfoxide compounds and compositions for cholesterol management and related uses” (Esperion Therapeutics, Inc., priority 2000, dated 2004).

Key:
[1] = system: rat hepatocyte cells; test: 14C-acetate incorporation into saponified and non-saponified lipids in hepatocytes; assay type: cell-based; settings: 30 μM; 14C-acetate labeling 4 hr; relative to vehicle control
Method: Washout buffer containing; 149 mM sodium chloride, 9.2 mM sodium N-2-hyroxyethylpiperazine-N′-2-ethanesulfonic acid, 1.7 mM fructose, 0.5 mM EGTA, 10 U/mL heparin at pH 7.5 and digestion buffer containing; 6.7 mM potassium chloride, 143 mM sodium chloride, 9.2 mM sodium N-2-hyroxyethylpiperazine-N′-2-ethanesulfonic acid, 5 mM calcium chloride-dihydrate, 1.7 mM fructose, 0.2% bovine serum albumin, 100 U/mL collagenase Type I, 93 U/mL Hyaluronidase, 160 BAEE/mL trypsin inhibitor at pH 7.5 were prepared. Solutions were oxygenate prior to perfusion. Wash buffer containing Dulbecco's Modified Eagle Medium (DMEM) containing 4.5 gm/L D-glucose, 2 mM GlutMax-1, 0.2% BSA, 5% fetal bovine serum (FBS), […], 1.2 μM hydrocortisone and DMEM+HS solution containing DMEM, 2 mM GlutMax-1, 20 nM delta-antinolevulinic acid, 17.4mM MEM non-essential amino acids, 20% FBS, 12 nM insulin and 1.2 μM hydrocortisone was prepared. DMEM solution containing DMEM, 2 mM GlutMax-1, 20 nM delta-aminolevulinic acid and 17.4 mM MEM non-essential amino acids were prepared. Male Sprague-Dawley rats weighing 125-250 gms were maintained on a standard rodent chow diet and freely given water. On the evening prior to cell isolation, selected healthy animals were fed restricted. […] The cell concentration was determined in several fields on the hemocytometer. […]

[2] = system: obese female Zucker rats; test: Two weeks of daily oral gavage treatment in chow-fed obese female Zucker rats; assay type: in vivo, rat; settings: 100 mg/kg daily oral gavage; for ratio of HDL/non-HDL cholesterol: pretreatment 2.70; for increase of total serum cholesterol: vs pretreatment
Method: Dosing vehicle of Compound A (100 mg/kg) was administered to 9-10 week old female obese Zucker rats (i.e. the fa/fa or leptin receptor deficient rat) daily for 14 days in the morning by oral gavage in 1.5 percent carboxymethylcellulose/0.2 percent […]. Tail vein blood for glucose determinations (without anesthesia) and orbital blood samples for serum (with anestehesia for all other determinations) were obtained following a 6 hour fast prior to the initial dose and after one and two weeks of dosing.
Blood serum were assayed for insulin, non-esterified fatty acids, […], total cholesterol, and triglycerides (FIG. 2). Glucose was determined in whole blood (Table 1). Blood serum was also used to produce lipoprotein cholesterol profiles (FIG. 2), and used to determine VLDL plus LDL cholesterol combined (also referred to as apoB containing lipoprotein cholesterol or non-HDL cholesterol), HDL cholesterol, and the ratio of HDL cholesterol to that of VLDL plus LDL cholesterol (FIG. 2). In addition, the effect of Compound A on weight gain after 14 days and the liver to body weight ratio at sacrifice are shown in FIG. 2.

Which results are given for `CC(C)(CO)CCCC[S+]([O-])CCCCC(C)(C)CO` [Compound A, 6-(5,5-Dimethyl-6-hydroxy-hexane-1-sulfinyl)-2,2-dimethyl-hexan-1-ol]?
reduction of rate of non-saponifiable lipid synthesis [1]: 54%; reduction of rate of saponifiable lipid synthesis [1]: 25%; blood glucose levels, pretreatment versus posttreatment ([2]; after one and two weeks, 6 hour fast): similar; increase in HDL cholesterol ([2]; after one week of treatment): 2.2 fold; increase of non-HDL cholesterol (VLDL plus LDL cholesterol) ([2]; after one week of treatment): 38%; reduction of serum triglycerides ([2]; after one week of treatment): 48%; ratio of HDL/non-HDL cholesterol ([2]; after one week of treatment): 3.84; increase of total serum cholesterol ([2]; after one week of treatment): 98%; increase in HDL cholesterol ([2]; after two weeks of treatment): 3.1 fold; increase of non-HDL cholesterol (VLDL plus LDL cholesterol) ([2]; after two weeks of treatment): 62%; reduction of serum triglycerides ([2]; after two weeks of treatment): 42%; ratio of HDL/non-HDL cholesterol ([2]; after two weeks of treatment): 4.97; increase of total serum cholesterol ([2]; after two weeks of treatment): 74%; serum β-hydroxy butyrate ([2]; after two weeks, elevated from 2.35 pretreatment): 3.94 mg/dL; serum non-esterified fatty acids ([2]; after two weeks, reduced from 2.28 pretreatment): 0.74 mmol/L
